Results from ChEMBL document CHEMBL1201862, “PubChem BioAssay data set” (2004).
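Method: 48-hour compound exposure of cells in 96-well plates, five concentrations, linear interpolation of endpoints. At the GI50, growth is halved.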 The source made the active and inactive calls. Cut-off read from the data, not from the text of the source: active = GI50 up to about 1.1 µM and inactive = higher.

Columns and labels:
Experiment in all cases: NCI tumour cell line growth inhibition, 48 h
[1] = test system: CCRF-CEM
[2] = test system: DMS-114
[3] = test system: DMS-273
[4] = test system: EKVX
[5] = test system: HCC 2998
[6] = test system: HT-29
[7] = test system: MCF7
[8] = test system: NCI-H23
[9] = test system: OVCAR-3
[10] = test system: RXF 393
[11] = test system: SF-268
[12] = test system: SF-295
[13] = test system: SK-MEL-28
[14] = test system: SK-OV-3
[15] = test system: SNB-19
[16] = test system: U-251
[17] = test system: UO-31
[18] = test system: M14
[19] = test system: SR
[20] = test system: TK-10

## COc1ccc2c(c1)OCCc1cn[nH]c1-2
[1]
  GI50: 37.4 µM (inactive)
[2]
  GI50: 27.3 µM (inactive)
[3]
  GI50: 32.2 µM (inactive)
[4]
  GI50: 4.44 µM (inactive)
[5]
  GI50: 83.4 µM (inactive)
[6]
  GI50: 34.8 µM (inactive)
[7]
  GI50: 26.7 µM (inactive)
[8]
  GI50: 38.3 µM (inactive)
[9]
  GI50: 29 µM (inactive)
[10]
  GI50: 61.2 µM (inactive)
[11]
  GI50: 59.4 µM (inactive)
[12]
  GI50: 54.2 µM (inactive)
[13]
  GI50: > 100 µM (inactive)
[14]
  GI50: 29.7 µM (inactive)
[15]
  GI50: 88.7 µM (inactive)
[16]
  GI50: 28.8 µM (inactive)
[17]
  GI50: 32.6 µM (inactive)

## CCC(=O)NC(Nc1ccc(O)cc1)(C(F)(F)F)C(F)(F)F
[1]
  GI50: 19.6 µM (inactive)
[4]
  GI50: > 100 µM (inactive)
[5]
  GI50: > 100 µM (inactive)
[6]
  GI50: > 100 µM (inactive)
[18]
  GI50: 80.5 µM (inactive)
[7]
  GI50: 46.3 µM (inactive)
[8]
  GI50: 67.8 µM (inactive)
[9]
  GI50: 40.6 µM (inactive)
[10]
  GI50: 28.8 µM (inactive)
[11]
  GI50: > 100 µM (inactive)
[13]
  GI50: > 100 µM (inactive)
[14]
  GI50: > 100 µM (inactive)
[15]
  GI50: > 100 µM (inactive)
[19]
  GI50: 36.5 µM (inactive)
[20]
  GI50: > 100 µM (inactive)
[16]
  GI50: 73.6 µM (inactive)
[17]
  GI50: 35.6 µM (inactive)

## COC(=O)C1=C(C(=O)OC)SC2(S1)C1=C(CCCC1)SC(C(=O)OC)=C2C(=O)OC
[1]
  GI50: 1.7 µM (inactive)
[4]
  GI50: 13.3 µM (inactive)
[5]
  GI50: 12.3 µM (inactive)
[6]
  GI50: 2.84 µM (inactive)
[18]
  GI50: 16.9 µM (inactive)
[7]
  GI50: 2.61 µM (inactive)
[8]
  GI50: 15.8 µM (inactive)
[9]
  GI50: 6.89 µM (inactive)
[10]
  GI50: 2.33 µM (inactive)
[11]
  GI50: 9.71 µM (inactive)
[12]
  GI50: 14.6 µM (inactive)
[13]
  GI50: 9.29 µM (inactive)
[14]
  GI50: 14.9 µM (inactive)
[15]
  GI50: 14.5 µM (inactive)
[20]
  GI50: 10.9 µM (inactive)
[16]
  GI50: 6.67 µM (inactive)
[17]
  GI50: 4.58 µM (inactive)

## C/C(=C/C(=O)Nc1ccccc1)Nc1onc(C)c1C
[1]
  GI50: > 100 µM (inactive)
[2]
  GI50: > 100 µM (inactive)
[3]
  GI50: > 100 µM (inactive)
[4]
  GI50: > 100 µM (inactive)
[5]
  GI50: > 100 µM (inactive)
[6]
  GI50: > 100 µM (inactive)
[7]
  GI50: > 100 µM (inactive)
[8]
  GI50: > 100 µM (inactive)
[9]
  GI50: > 100 µM (inactive)
[10]
  GI50: > 100 µM (inactive)
[11]
  GI50: > 100 µM (inactive)
[12]
  GI50: > 100 µM (inactive)
[13]
  GI50: > 100 µM (inactive)
[14]
  GI50: > 100 µM (inactive)
[15]
  GI50: > 100 µM (inactive)
[16]
  GI50: > 100 µM (inactive)
[17]
  GI50: > 100 µM (inactive)

## O=C(O)c1cc([N+](=O)[O-])cc2c(=O)c3cnccc3[nH]c12
[1]
  GI50: > 100 µM (inactive)
[5]
  GI50: > 100 µM (inactive)
[6]
  GI50: > 100 µM (inactive)
[18]
  GI50: > 100 µM (inactive)
[7]
  GI50: > 100 µM (inactive)
[8]
  GI50: > 100 µM (inactive)
[9]
  GI50: > 100 µM (inactive)
[10]
  GI50: > 100 µM (inactive)
[12]
  GI50: > 100 µM (inactive)
[13]
  GI50: > 100 µM (inactive)
[14]
  GI50: > 100 µM (inactive)
[15]
  GI50: > 100 µM (inactive)
[19]
  GI50: > 100 µM (inactive)
[16]
  GI50: > 100 µM (inactive)
[17]
  GI50: > 100 µM (inactive)

## CC(=O)CCC#Cc1ccccc1C(=O)C(C)=[N+]=[N-]
[1]
  GI50: 6.08 µM (inactive)
[2]
  GI50: 12.9 µM (inactive)
[3]
  GI50: 26.4 µM (inactive)
[4]
  GI50: 81.8 µM (inactive)
[5]
  GI50: > 100 µM (inactive)
[6]
  GI50: 44.8 µM (inactive)
[18]
  GI50: 20.3 µM (inactive)
[8]
  GI50: 36.1 µM (inactive)
[9]
  GI50: 28.5 µM (inactive)
[10]
  GI50: 23.6 µM (inactive)
[11]
  GI50: 18.1 µM (inactive)
[12]
  GI50: 45 µM (inactive)
[13]
  GI50: 18.2 µM (inactive)
[14]
  GI50: 57.7 µM (inactive)
[15]
  GI50: > 100 µM (inactive)
[20]
  GI50: > 100 µM (inactive)
[16]
  GI50: 36.8 µM (inactive)
[17]
  GI50: 44.4 µM (inactive)

## Cc1ccc(Sc2ccccc2[N+](=O)[O-])cc1
[1]
  GI50: 30.9 µM (inactive)
[3]
  GI50: 28.6 µM (inactive)
[4]
  GI50: 28.6 µM (inactive)
[5]
  GI50: 21 µM (inactive)
[6]
  GI50: 19.9 µM (inactive)
[18]
  GI50: 29 µM (inactive)
[8]
  GI50: 27.4 µM (inactive)
[9]
  GI50: 31 µM (inactive)
[10]
  GI50: 18 µM (inactive)
[11]
  GI50: 38.2 µM (inactive)
[12]
  GI50: 21.6 µM (inactive)
[13]
  GI50: 21.9 µM (inactive)
[14]
  GI50: 34.4 µM (inactive)
[19]
  GI50: 31.3 µM (inactive)
[20]
  GI50: 37.8 µM (inactive)
[16]
  GI50: 23 µM (inactive)
[17]
  GI50: 28.8 µM (inactive)

## CC(C)c1cccc(C(C)C)c1NC(=S)Nc1ccccc1
[1]
  GI50: 41.4 µM (inactive)
[2]
  GI50: 43 µM (inactive)
[3]
  GI50: > 100 µM (inactive)
[4]
  GI50: > 100 µM (inactive)
[5]
  GI50: > 100 µM (inactive)
[6]
  GI50: > 100 µM (inactive)
[18]
  GI50: > 100 µM (inactive)
[8]
  GI50: > 100 µM (inactive)
[9]
  GI50: > 100 µM (inactive)
[10]
  GI50: 75.5 µM (inactive)
[11]
  GI50: > 100 µM (inactive)
[12]
  GI50: > 100 µM (inactive)
[13]
  GI50: > 100 µM (inactive)
[14]
  GI50: > 100 µM (inactive)
[15]
  GI50: > 100 µM (inactive)
[19]
  GI50: > 100 µM (inactive)
[20]
  GI50: > 100 µM (inactive)
[16]
  GI50: > 100 µM (inactive)
[17]
  GI50: > 100 µM (inactive)

## O=C1Sc2ccccc2NC1=C(C(=O)c1ccccc1)C(=O)c1ccccc1
[1]
  GI50: 1.18 µM (inactive)
[4]
  GI50: 33.1 µM (inactive)
[5]
  GI50: 19.4 µM (inactive)
[6]
  GI50: 22.5 µM (inactive)
[18]
  GI50: 15.2 µM (inactive)
[7]
  GI50: 2.44 µM (inactive)
[8]
  GI50: 22.6 µM (inactive)
[9]
  GI50: 5.18 µM (inactive)
[10]
  GI50: 47.1 µM (inactive)
[11]
  GI50: 14.9 µM (inactive)
[12]
  GI50: 20.6 µM (inactive)
[13]
  GI50: > 100 µM (inactive)
[14]
  GI50: 21.7 µM (inactive)
[15]
  GI50: 33 µM (inactive)
[20]
  GI50: 26.1 µM (inactive)
[16]
  GI50: 16 µM (inactive)
[17]
  GI50: 29.9 µM (inactive)

## O=S(=O)(CF)OCCCCOS(=O)(=O)CF
[1]
  GI50: 32.2 µM (inactive)
[2]
  GI50: 74 µM (inactive)
[3]
  GI50: 75.9 µM (inactive)
[4]
  GI50: > 100 µM (inactive)
[6]
  GI50: > 100 µM (inactive)
[18]
  GI50: > 100 µM (inactive)
[8]
  GI50: 97.9 µM (inactive)
[9]
  GI50: > 100 µM (inactive)
[11]
  GI50: > 100 µM (inactive)
[12]
  GI50: > 100 µM (inactive)
[13]
  GI50: > 100 µM (inactive)
[14]
  GI50: > 100 µM (inactive)
[15]
  GI50: 95.3 µM (inactive)
[20]
  GI50: > 100 µM (inactive)
[16]
  GI50: > 100 µM (inactive)
[17]
  GI50: > 100 µM (inactive)

## COc1nn(Cc2ccccc2F)c2ccc([N+](=O)[O-])cc12
[1]
  GI50: > 100 µM (inactive)
[4]
  GI50: > 100 µM (inactive)
[5]
  GI50: > 100 µM (inactive)
[6]
  GI50: > 100 µM (inactive)
[18]
  GI50: > 100 µM (inactive)
[7]
  GI50: > 100 µM (inactive)
[8]
  GI50: > 100 µM (inactive)
[9]
  GI50: > 100 µM (inactive)
[10]
  GI50: 7.48 µM (inactive)
[11]
  GI50: > 100 µM (inactive)
[13]
  GI50: > 100 µM (inactive)
[15]
  GI50: > 100 µM (inactive)
[19]
  GI50: > 100 µM (inactive)
[20]
  GI50: > 100 µM (inactive)
[16]
  GI50: > 100 µM (inactive)
[17]
  GI50: > 100 µM (inactive)

## COc1cccc(N[C@@H]2c3cc4c(cc3C(c3cc(OC)c(O)c(OC)c3)[C@H]3C(=O)OCC32)OCO4)c1 (stereo not given in full)
[1]
  GI50: 0.0546 µM (active)
[2]
  GI50: 0.578 µM (active)
[3]
  GI50: 0.148 µM (active)
[4]
  GI50: 2.56 µM (inactive)
[5]
  GI50: 1.36 µM (inactive)
[6]
  GI50: 0.973 µM (active)
[7]
  GI50: 0.207 µM (active)
[8]
  GI50: 0.587 µM (active)
[9]
  GI50: 8.53 µM (inactive)
[10]
  GI50: 1.07 µM (active)
[11]
  GI50: 0.681 µM (active)
[12]
  GI50: 0.186 µM (active)
[13]
  GI50: 2.49 µM (inactive)
[14]
  GI50: 1.32 µM (inactive)
[15]
  GI50: 0.328 µM (active)
[16]
  GI50: 0.411 µM (active)
[17]
  GI50: 0.302 µM (active)

## CCc1nnc(-c2nsc3ccccc23)s1
[1]
  GI50: 42.5 µM (inactive)
[2]
  GI50: > 100 µM (inactive)
[3]
  GI50: > 100 µM (inactive)
[4]
  GI50: 23 µM (inactive)
[5]
  GI50: > 100 µM (inactive)
[6]
  GI50: > 100 µM (inactive)
[18]
  GI50: > 100 µM (inactive)
[8]
  GI50: > 100 µM (inactive)
[9]
  GI50: 24.1 µM (inactive)
[10]
  GI50: > 100 µM (inactive)
[11]
  GI50: > 100 µM (inactive)
[13]
  GI50: > 100 µM (inactive)
[15]
  GI50: > 100 µM (inactive)
[19]
  GI50: 53 µM (inactive)
[20]
  GI50: > 100 µM (inactive)
[16]
  GI50: > 100 µM (inactive)
[17]
  GI50: 34 µM (inactive)
